The values below come from patent US20250171462A1 (NICO Therapeutics, Inc., priority 2022, published 2025).

A word on the IC50: it is the point on the concentration scale where inhibition reaches its midpoint.

In this experiment the target is T1, full-length SARM1 (FL-SARM1) (Homo sapiens, UniProt Q6SZW1).
T1 sequence (Q6SZW1 28-724): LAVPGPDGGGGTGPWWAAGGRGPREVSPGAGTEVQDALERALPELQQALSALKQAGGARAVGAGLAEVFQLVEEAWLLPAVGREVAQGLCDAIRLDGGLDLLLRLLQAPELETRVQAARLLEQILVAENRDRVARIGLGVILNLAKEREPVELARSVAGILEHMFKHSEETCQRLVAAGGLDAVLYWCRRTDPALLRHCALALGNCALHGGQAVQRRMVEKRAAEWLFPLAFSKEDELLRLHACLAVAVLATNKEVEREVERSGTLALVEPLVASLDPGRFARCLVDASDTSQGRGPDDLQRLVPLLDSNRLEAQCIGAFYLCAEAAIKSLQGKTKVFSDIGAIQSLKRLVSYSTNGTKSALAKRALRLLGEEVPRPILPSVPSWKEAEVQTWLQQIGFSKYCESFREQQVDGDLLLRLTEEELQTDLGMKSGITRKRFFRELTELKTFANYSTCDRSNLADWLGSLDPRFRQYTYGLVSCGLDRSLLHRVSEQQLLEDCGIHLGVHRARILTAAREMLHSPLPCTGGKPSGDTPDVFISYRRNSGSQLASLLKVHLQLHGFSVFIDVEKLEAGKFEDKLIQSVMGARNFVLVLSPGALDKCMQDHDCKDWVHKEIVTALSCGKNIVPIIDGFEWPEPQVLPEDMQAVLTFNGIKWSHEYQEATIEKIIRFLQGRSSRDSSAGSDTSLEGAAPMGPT
Briefly: FL-SARM1 cellular lysate assay (NAD/NADH-Glo detection of remaining NAD+, NMN-activated).

The mark [1] stands for this setting: Activity (μM) (IC50), 11 point curve.
The mark [2] stands for this setting: read-out: Activity (IC50 class), 11 point curve.
The mark [3] stands for this setting: Activity (IC50 class), 11 point curve.

Like-named read-outs stand apart in the source and are kept apart here.

With `O=C(Nc1ccc(Cl)c(-c2ccccn2)c1)N1C2CCCC1C2` [Example 20, N-(4-chloro-3-(pyridin-2-yl)phenyl)-6-azabicyclo[3.1.1]heptane-6-carboxamide], the IC50 reads like this: under setting [1], 0.4 µM; under setting [2], 0.0001 to 1 µM.

As for `Cc1ccc(NC(=O)N2CC3CC2Cc2ccccc23)cc1-c1ccccn1` (stereo not drawn) [Example 21, N-(4-methyl-3-(pyridin-2-yl)phenyl)-4,5-dihydro-1H-1,4-methanobenzo[d]azepine-3(2H)-carboxamide], the IC50 was 1 to 10 µM under setting [3] and 2.5 µM under setting [1].

With `Cc1ccc(NC(=O)N2C3CC2C(=O)N(C)C3)cc1-c1ccccn1` (stereo not drawn) [Example 22, 3-methyl-N-(4-methyl-3-(pyridin-2-yl)phenyl)-2-oxo-3,6-diazabicyclo[3.1.1]heptane-6-carboxamide], the IC50 reads like this: under setting [3], 1 to 10 µM; under setting [1], 2 µM.

With `Cc1ccc(NC(=O)N2C3CCCCC2C3)cc1-c1ccccn1` [Example 23, N-(4-methyl-3-(pyridin-2-yl)phenyl)-7-azabicyclo[4.1.1]octane-7-carboxamide], the concentration for half-maximal inhibition (IC50) is, setting by setting: under setting [1], 0.04 µM; under setting [2], 0.0001 to 1 µM.

`Cc1ccc(NC(=O)N2CC3CC2c2ccccc2O3)cc1-c1ccccn1` (stereo not drawn) [Example 24, N-(4-methyl-3-(pyridin-2-yl)phenyl)-2,3-dihydro-2,5-methanobenzo[f][1,4]oxazepine-4(5H)-carboxamide] showed an IC50 under setting [3] of 1 to 10 µM and an IC50 under setting [1] of 1.4 µM.

Turning to `Cc1ccc(NC(=O)N2CC(C3CC3)C2)cc1-c1ccccn1` [Example 25, 3-cyclopropyl-N-(4-methyl-3-(pyridin-2-yl)phenyl)azetidine-1-carboxamide], the IC50 is, setting by setting: under setting [3], 1 to 10 µM; under setting [1], 6.7 µM.

As to `Cc1ccc(NC(=O)N2C3CCC2c2cnccc23)cc1-c1ccccn1` (stereo not drawn) [Example 26, N-(4-methyl-3-(pyridin-2-yl)phenyl)-5,6,7,8-tetrahydro-5,8-epiminoisoquinoline-9-carboxamide], the half-maximal inhibitory concentration (IC50) under setting [3] was in the range of 1 to 10 µM and the IC50 under setting [1] stood at 1.3 µM.

`Cc1ccc(NC(=O)N2[C@@H]3C[C@@H](F)C[C@H]2C3)cc1-c1ccccn1` [Example 27, cis-3-fluoro-N-(4-methyl-3-(pyridin-2-yl)phenyl)-6-azabicyclo[3.1.1]heptane-6-carboxamide]: the half-maximal inhibitory concentration (IC50) reads like this: under setting [1], 0.1 µM; under setting [2], 0.0001 to 1 µM.

As for `CCc1ccc(NC(=O)N2C3CCCC2C3)cc1-c1ccc(F)cn1` [Example 28, N-(4-ethyl-3-(5-fluoropyridin-2-yl)phenyl)-6-azabicyclo[3.1.1]heptane-6-carboxamide], the IC50 is, setting by setting: under setting [1], 0.6 µM; under setting [2], 0.0001 to 1 µM.

Regarding `Cc1ccc(NC(=O)N2C3C[C@H](OC(F)F)C[C@H]2C3)cc1-c1ccccn1` [Example 29, trans-3-(difluoromethoxy)-N-(4-methyl-3-(pyridin-2-yl)phenyl)-6-azabicyclo[3.1.1]heptane-6-carboxamide], the IC50 is, setting by setting: under setting [1], 0.06 µM; under setting [2], 0.0001 to 1 µM.

As to `CCc1ccc(NC(=O)N2C3CCCC2C3)cc1-c1ccccn1` [Example 30, N-(4-ethyl-3-(pyridin-2-yl)phenyl)-6-azabicyclo[3.1.1]heptane-6-carboxamide], the IC50 was 0.2 µM under setting [1] and 0.0001 to 1 µM under setting [2].

With `Cc1ccc(NC(=O)N2C3CCCC2C3)cc1-c1ncccc1C1CC1` [Example 32, N-(3-(3-cyclopropylpyridin-2-yl)-4-methylphenyl)-6-azabicyclo[3.1.1]heptane-6-carboxamide], the IC50 is 1 to 10 µM under setting [3] and 6.1 µM under setting [1].

The molecule `Cc1ccc(NC(=O)N2C3CCCC2C3)cc1-c1ncccc1C#N` [Example 33, N-(3-(3-cyanopyridin-2-yl)-4-methylphenyl)-6-azabicyclo[3.1.1]heptane-6-carboxamide] had a concentration for half-maximal inhibition (IC50) under setting [3] of 1 to 10 µM and an IC50 under setting [1] of 1.2 µM.

As to `O=C(Nc1ccc(C2CC2)c(-c2ccccn2)c1)N1C2CCCC1C2` [Example 34, N-(4-cyclopropyl-3-(pyridin-2-yl)phenyl)-6-azabicyclo[3.1.1]heptane-6-carboxamide], the 50% inhibitory concentration (IC50) by setting is: under setting [3], 1 to 10 µM; under setting [1], 1.1 µM.

Take `O=C(Nc1ccc(F)c(-c2ccc(F)cn2)c1)N1C2CCCC1C2` [Example 35, N-(4-fluoro-3-(5-fluoropyridin-2-yl)phenyl)-6-azabicyclo[3.1.1]heptane-6-carboxamide]: the 50% inhibitory concentration (IC50) reads like this: under setting [3], 1 to 10 µM; under setting [1], 3.5 µM.

For `O=C(Nc1ccc(C2CC2)c(-c2ccc(F)cn2)c1)N1C2CCCC1C2` [Example 36, N-(4-cyclopropyl-3-(5-fluoropyridin-2-yl)phenyl)-6-azabicyclo[3.1.1]heptane-6-carboxamide], the 50% inhibitory concentration (IC50) was 1 to 10 µM under setting [3] and 1.1 µM under setting [1].

On to `Cc1ccc(NC(=O)N2C[C@H]3C[C@@H]2CN3c2ccccc2)cc1-c1ccccn1` [Example 38, (1R,4R)-N-(4-methyl-3-(pyridin-2-yl)phenyl)-5-phenyl-2,5-diazabicyclo[2.2.1]heptane-2-carboxamide], for which the IC50 runs as follows: under setting [3], 1 to 10 µM; under setting [1], 7.7 µM.

As to `Cc1ccc(NC(=O)N2C3C[C@H](O)C[C@H]2C3)cc1-c1ccccn1` [Example 39, trans-3-hydroxy-N-(4-methyl-3-(pyridin-2-yl)phenyl)-6-azabicyclo[3.1.1]heptane-6-carboxamide], the concentration for half-maximal inhibition (IC50) runs as follows: under setting [3], 1 to 10 µM; under setting [1], 3.8 µM.

With `Cc1ccc(NC(=O)N2C3CCCC2C3)cc1-c1ccc(F)cn1` [Example 40, N-(3-(5-fluoropyridin-2-yl)-4-methylphenyl)-6-azabicyclo[3.1.1]heptane-6-carboxamide], the IC50 by setting is: under setting [1], 0.08 µM; under setting [2], 0.0001 to 1 µM.

As for `CO[C@@H]1C[C@@H]2C[C@H](C1)N2C(=O)Nc1ccc(C)c(-c2ccccn2)c1` [Example 41, cis-3-methoxy-N-(4-methyl-3-(pyridin-2-yl)phenyl)-6-azabicyclo[3.1.1]heptane-6-carboxamide], the 50% inhibitory concentration (IC50) under setting [1] was 0.5 µM and the IC50 under setting [2] was in the range of 0.0001 to 1 µM.

Consider `C[C@@H]1C[C@@H]2C[C@H](C1)N2C(=O)Nc1ccc(C#N)c(-c2ccccn2)c1` [Example 42, cis-N-(4-cyano-3-(pyridin-2-yl)phenyl)-3-methyl-6-azabicyclo[3.1.1]heptane-6-carboxamide], for which the IC50 by setting is: under setting [1], 0.05 µM; under setting [2], 0.0001 to 1 µM.

With `Cc1cc(F)c(NC(=O)N2C3CCCC2C3)cc1-c1ccccn1` [Example 43, N-(2-fluoro-4-methyl-5-(pyridin-2-yl)phenyl)-6-azabicyclo[3.1.1]heptane-6-carboxamide], half-maximal inhibition under setting [1] (IC50) was put at 0.2 µM and the 50% inhibitory concentration (IC50) under setting [2] was in the range of 0.0001 to 1 µM.

For `Cc1ccc(NC(=O)N2C3CCCC2C3)cc1-c1cccc(C#N)n1` [Example 44, N-(3-(6-cyanopyridin-2-yl)-4-methylphenyl)-6-azabicyclo[3.1.1]heptane-6-carboxamide], the concentration for half-maximal inhibition (IC50) under setting [1] is 0.1 µM and the concentration for half-maximal inhibition (IC50) under setting [2] was 0.0001 to 1 µM.

Take `CO[C@H]1C[C@@H]2C[C@H](C1)N2C(=O)Nc1ccc(C)c(-c2ccccn2)c1` [Example 45, trans-3-Methoxy-N-(4-methyl-3-(pyridin-2-yl)phenyl)-6-azabicyclo[3.1.1]heptane-6-carboxamide]: the IC50 is, setting by setting: under setting [1], 0.5 µM; under setting [2], 0.0001 to 1 µM.

Take `O=C(Nc1ccc(Cl)c(-c2ccc(F)cn2)c1)N1C2CCCC1C2` [Example 46, N-(4-chloro-3-(5-fluoropyridin-2-yl)phenyl)-6-azabicyclo[3.1.1]heptane-6-carboxamide]: the IC50 was 0.2 µM under setting [1] and 0.0001 to 1 µM under setting [2].

On to `Cc1ccc(NC(=O)N2C3C[C@@H](C)C[C@@H]2C3)cc1-c1ncc(F)cn1` [Example 50, trans-N-(3-(5-fluoropyrimidin-2-yl)-4-methylphenyl)-3-methyl-6-azabicyclo[3.1.1]heptane-6-carboxamide], for which the IC50 by setting is: under setting [1], 0.02 µM; under setting [2], 0.0001 to 1 µM.

As to `Cc1ccc(NC(=O)N2C3C[C@H](C)C[C@@H]2C3)cc1-c1ncc(F)cn1` [Example 51, cis-N-(3-(5-fluoropyrimidin-2-yl)-4-methylphenyl)-3-methyl-6-azabicyclo[3.1.1]heptane-6-carboxamide], the 50% inhibitory concentration (IC50) reads like this: under setting [1], 0.01 µM; under setting [2], 0.0001 to 1 µM.

`Cc1ccc(NC(=O)N2C3CCCC2C3)cc1-c1ncccn1` [Example 52, N-(4-methyl-3-(pyrimidin-2-yl)phenyl)-6-azabicyclo[3.1.1]heptane-6-carboxamide]: the 50% inhibitory concentration (IC50) is 0.5 µM under setting [1] and 0.0001 to 1 µM under setting [2].

With `Cc1ccc(NC(=O)N2C3CCCC2C3)cc1-c1cnccn1` [Example 53, N-(4-methyl-3-(pyrazin-2-yl)phenyl)-6-azabicyclo[3.1.1]heptane-6-carboxamide], the IC50 was 0.8 µM under setting [1] and 0.0001 to 1 µM under setting [2].

With `Cc1ccc(NC(=O)N2C3CCCC2C3)cc1-c1cccnn1` [Example 54, N-(4-methyl-3-(pyridazin-3-yl)phenyl)-6-azabicyclo[3.1.1]heptane-6-carboxamide], the half-maximal inhibitory concentration (IC50) is, setting by setting: under setting [1], 0.5 µM; under setting [2], 0.0001 to 1 µM.
